According to patent US20260193293A1, “PEPTIDES CAPABLE OF INHIBITING PROTEIN-PROTEIN INTERACTIONS AT GABAB1A SUBUNIT AND USES THEREOF” (UNIVERSITY OF COPENHAGEN, priority 2022, published 2026):
Like-named read-outs stand apart in the source and are kept apart here. Non-standard residues stand in square brackets, D forms with d. Residues, ends and D or L forms follow the SMILES beside them. 2Nal = N[C@@H](Cc1ccc2ccccc2c1)C(=O)O; Sar = CNCC(=O)O

Biological target: Sushi domains (SD1/2) protein
Experiment: Fluorescence polarization (FP) competition assay with AJAP-1probe, calculated Ki
Assay type: binding
Summary of the method: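 Ki values were derived from IC50s (sigmoidal fits, ≥ triplicate), with probe Kd obtained by saturation titration of SD1/2. Peptides displaced a 25 nM TAMRA-labelled probe; polarization read at 530/580 nm in 1% BSA-containing PBS, pH 7.4, room temperature.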

[1] = Table 6, elongation and truncation scan of PIANP binding epitope, read-out: Ki (nM) mean ± SEM
[2] = Table 14, CPPs tagged peptides, read-out: Ki (nM) mean ± SEM
[3] = Table 13, peptides for affinity maturation, read-out: Ki (nM) mean ± SEM
[4] = Table 7, Ala-, D-amino acids and N-methylation scans of APPWT, read-out: Ki (nM) mean ± SEM
[5] = Table 8, Ala-, D-amino acids and N-methylation scans of AJAP-1WT, read-out: Ki (nM) mean ± SEM

For `CC[C@H](C)[C@H](NC(=O)[C@H](C)NC(=O)[C@H](Cc1c[nH]c2ccccc12)NC(=O)[C@@H]1CCCN1C(C)=O)C(=O)N[C@H](C(=O)N[C@@H](Cc1c[nH]c2ccccc12)C(=O)NCC(=O)N1CCC[C@H]1C(=O)N[C@H](C(=O)N[C@H](C(=O)N[C@@H](CO)C(=O)N[C@@H](CCCNC(=N)N)C(=O)N[C@@H](CCC(=O)O)C(=O)N[C@@H](CC(=O)O)C(=O)NCC(=O)NCC(=O)N[C@@H](CC(=O)O)C(=O)N1CCC[C@H]1C(=O)N[C@@H](CC(N)=O)C(N)=O)C(C)C)[C@@H](C)O)C(C)C` (Ac-PWAIVWGPTVSREDGGDPN-NH2), the Ki [1] was 579 ± 21 nM.

In the case of `CC[C@H](C)[C@H](NC(=O)[C@H](Cc1c[nH]c2ccccc12)NC(=O)[C@H](CC(=O)O)NC(=O)[C@H](CC(=O)O)NC(=O)[C@H](CC(=O)O)NC(=O)[C@H](CCC(=O)O)NC(=O)[C@H](CCCNC(=N)N)NC(=O)[C@H](CCCNC(=N)N)NC(=O)[C@H](CCCNC(=N)N)NC(=O)[C@H](CCCNC(=N)N)NC(C)=O)C(=O)N[C@@H](CC(=O)O)C(=O)N[C@@H](Cc1c[nH]c2ccccc12)C(=O)N[C@@H](Cc1ccc(O)cc1)C(=O)N[C@@H](CC(=O)O)C(=O)N[C@@H](CO)C(=O)N[C@@H](CC(=O)O)C(=O)N[C@@H](CC(=O)O)C(=O)N[C@@H](CC(=O)O)C(N)=O` [Peptide 4R-16] (Ac-RRRREDDDWIDWYDSDDD-NH2), the Ki [2] is reported as 20.6 ± 0.2 nM.

In the case of `CC[C@H](C)[C@H](NC(=O)[C@H](Cc1ccccc1)NC(=O)[C@H](CCC(=O)O)NC(=O)[C@@H](NC(=O)[C@H](CCC(=O)O)NC(=O)[C@@H](NC(C)=O)[C@@H](C)O)[C@@H](C)O)C(=O)N[C@@H](C)C(=O)N[C@@H](Cc1c[nH]c2ccccc12)C(=O)NCC(=O)N1CCC[C@H]1C(=O)N[C@H](C(=O)NCC(=O)N[C@@H](CC(=O)O)C(=O)N[C@@H](CCC(=O)O)C(N)=O)[C@@H](C)O` (Ac-TETEFIAWGPTGDE-NH2), the Ki (Table 5, elongation and truncation scan of AJAP-1 binding epitope, read-out: Ki (nM) mean ± SEM) is reported as 69 ± 1 nM.

`CC(=O)N[C@@H](CCC(=O)O)C(=O)N[C@@H](CCC(=O)O)C(=O)N[C@@H](CC(=O)O)C(=O)N[C@@H](CC(=O)O)C(=O)N[C@@H](CO)C(=O)N[C@@H](CC(=O)O)C(=O)N[C@H](C(=O)N[C@@H](Cc1c[nH]c2ccccc12)C(=O)N[C@@H](Cc1c[nH]c2ccccc12)C(=O)NCC(=O)NCC(=O)N[C@@H](C)C(=O)N[C@@H](CC(=O)O)C(=O)N[C@H](C(=O)N[C@@H](CC(=O)O)C(=O)N[C@@H](Cc1ccc(O)cc1)C(=O)N[C@@H](C)C(N)=O)[C@@H](C)O)C(C)C` (Ac-EEDDSDVWWGGADTDYA-NH2) showed a Ki (Table 4, truncation and elongation scans of APP epitope, read-out: Ki (nM) mean ± SEM) of 299 ± 8 nM.

Compound `CC[C@H](C)[C@H](NC(=O)[C@H](Cc1ccc(O)cc1)NC(=O)[C@H](CC(=O)O)NC(=O)[C@H](CC(=O)O)NC(=O)[C@H](CCC(=O)O)NC(C)=O)C(=O)N[C@@H](CC(=O)O)C(=O)N[C@@H](Cc1c[nH]c2ccccc12)C(=O)NCC(=O)N1CCC[C@H]1C(=O)N[C@H](C(=O)N[C@@H](CO)C(=O)N[C@@H](CC(=O)O)C(=O)N[C@@H](CC(=O)O)C(=O)N[C@@H](CC(=O)O)C(N)=O)[C@@H](C)O` [Peptide 19] (Ac-EDDYIDWGPTSDDD-NH2) has a Ki (Table 1, affinity maturation, mean ± SEM, n ≥ 3, read-out: Ki) of 3.8 ± 0.2 nM and a Ki [3] of 3.8 ± 0.2 nM.

Work on `CC[C@H](C)[C@H](NC(=O)[C@H](C)NC(=O)[C@H](Cc1c[nH]c2ccccc12)NC(=O)[C@@H]1CCCN1C(C)=O)C(=O)N[C@H](C(=O)N[C@@H](Cc1c[nH]c2ccccc12)C(=O)NCC(=O)N1CCC[C@H]1C(=O)N[C@H](C(=O)N[C@@H](C)C(=O)N[C@@H](CO)C(=O)N[C@@H](CCCNC(=N)N)C(=O)N[C@@H](CCC(=O)O)C(=O)N[C@@H](CC(=O)O)C(N)=O)[C@@H](C)O)C(C)C` [PWAIVWGPTASRED] (Ac-PWAIVWGPTASRED-NH2) yielded a Ki (Table 9, Ala-, D-amino acids and N-methylation scans of PIANPWT, read-out: Ki (nM) mean ± SEM) of 318 ± 3 nM.

`CC(=O)N[C@@H](CCC(=O)O)C(=O)N[C@@H](CC(=O)O)C(=O)N[C@@H](CC(=O)O)C(=O)N[C@@H](CO)C(=O)N[C@@H](CC(=O)O)C(=O)N[C@H](C(=O)N[C@@H](Cc1c[nH]c2ccccc12)C(=O)N[C@@H](Cc1c[nH]c2ccccc12)C(=O)NCC(=O)N(C)CC(=O)N[C@@H](C)C(=O)N[C@@H](CC(=O)O)C(=O)N[C@H](C(=O)N[C@@H](CC(=O)O)C(N)=O)[C@@H](C)O)C(C)C` (Ac-EDDSDVWWG[Sar]ADTD-NH2) gave a Ki [4] of 161 ± 2 nM and a Ki [3] of 161 ± 2 nM.

Compound `CC[C@H](C)[C@H](NC(=O)[C@H](C)NC(=O)[C@H](Cc1c[nH]c2ccccc12)NC(=O)[C@@H]1CCCN1C(C)=O)C(=O)N[C@H](C(=O)N[C@@H](Cc1c[nH]c2ccccc12)C(=O)NCC(=O)N1CCC[C@H]1C(=O)N[C@H](C(=O)N[C@H](C(=O)N[C@@H](CO)C(=O)N[C@@H](CCCNC(=N)N)C(=O)N[C@@H](CCC(=O)O)C(=O)N[C@@H](CC(=O)O)C(=O)NCC(=O)NCC(=O)N[C@@H](CC(=O)O)C(=O)N1CCC[C@H]1C(=O)N[C@@H](CC(N)=O)C(=O)N[C@@H](CO)C(N)=O)C(C)C)[C@@H](C)O)C(C)C` (Ac-PWAIVWGPTVSREDGGDPNS-NH2) has a Ki [1] of 706 ± 16 nM.

Compound `CC[C@H](C)[C@H](NC(=O)[C@H](C)NC(=O)[C@H](Cc1c[nH]c2ccccc12)NC(=O)[C@@H]1CCCN1C(C)=O)C(=O)N[C@H](C(=O)N[C@@H](Cc1c[nH]c2ccccc12)C(=O)NCC(=O)N1CCC[C@H]1C(=O)N[C@H](C(=O)N[C@H](C(=O)N[C@@H](CO)C(=O)N[C@@H](CCCNC(=N)N)C(=O)N[C@@H](CCC(=O)O)C(=O)N[C@@H](CC(=O)O)C(=O)NCC(N)=O)C(C)C)[C@@H](C)O)C(C)C` [Peptide 14] (Ac-PWAIVWGPTVSREDG-NH2) has a Ki (purified peptides, read-out: Ki) of 465 nM.

In the case of `CC[C@H](C)[C@H](NC(=O)[C@H](Cc1ccccc1)NC(=O)[C@H](CCC(=O)O)NC(=O)[C@@H](NC(=O)[C@H](CCC(=O)O)NC(C)=O)[C@@H](C)O)C(=O)N[C@@H](C)C(=O)N[C@@H](Cc1c[nH]c2ccccc12)C(=O)NCC(=O)N1CCC[C@H]1C(=O)N[C@@H](C)C(=O)NCC(=O)N[C@@H](CC(=O)O)C(=O)N[C@@H](CCC(=O)O)C(=O)N[C@@H](CC(=O)O)C(N)=O` [ETEFIAWGPAGDED] (Ac-ETEFIAWGPAGDED-NH2), the Ki [5] is reported as 89 ± 2 nM.

`CC[C@H](C)[C@H](NC(=O)[C@H](CC(=O)O)NC(=O)[C@H](CC(=O)O)NC(=O)[C@H](Cc1ccc(O)cc1)NC(=O)[C@H](CC(=O)O)NC(=O)[C@H](CC(=O)O)NC(=O)[C@H](CO)NC(=O)[C@H](CC(=O)O)NC(=O)[C@H](CCC(=O)O)NC(=O)[C@H](Cc1ccc2ccccc2c1)NC(=O)[C@H](CCCNC(=N)N)NC(=O)[C@H](CCCNC(=N)N)NC(=O)[C@H](CCCNC(=N)N)NC(=O)[C@H](CCCNC(=N)N)NC(C)=O)C(=O)N[C@@H](CC(=O)O)C(=O)N[C@@H](CC(=O)O)C(=O)N[C@@H](CC(=O)O)C(=O)N[C@@H](Cc1c[nH]c2ccccc12)C(N)=O` [reference compound] (Ac-RRRR[2Nal]EDSDDYDDIDDDW-NH2) was tested, and the Ki [2] was 143000 ± 2500 nM.

With `CC[C@H](C)[C@H](NC(=O)[C@H](Cc1ccccc1)NC(=O)[C@H](CCC(=O)O)NC(=O)[C@H](C)NC(=O)[C@H](CCC(=O)O)NC(C)=O)C(=O)N[C@@H](C)C(=O)N[C@@H](Cc1c[nH]c2ccccc12)C(=O)NCC(=O)N1CCC[C@H]1C(=O)N[C@H](C(=O)NCC(=O)N[C@@H](CC(=O)O)C(=O)N[C@@H](CCC(=O)O)C(=O)N[C@@H](CC(=O)O)C(N)=O)[C@@H](C)O` [EAEFIAWGPTGDED] (Ac-EAEFIAWGPTGDED-NH2) the Ki [5] was 34 ± 3 nM.

`CC[C@H](C)[C@H](NC(=O)[C@H](C)NC(=O)[C@H](Cc1c[nH]c2ccccc12)NC(=O)[C@@H]1CCCN1C(C)=O)C(=O)N[C@H](C(=O)N[C@@H](Cc1c[nH]c2ccccc12)C(=O)NCC(N)=O)C(C)C` [PWAIVWG] (Ac-PWAIVWG-NH2) gave a Ki [1] of 579 ± 21 nM.

`CC[C@H](C)[C@H](NC(C)=O)C(=O)N[C@H](C(=O)N[C@@H](Cc1c[nH]c2ccccc12)C(=O)NCC(=O)N1CCC[C@H]1C(=O)N[C@H](C(=O)N[C@H](C(=O)N[C@@H](CO)C(=O)N[C@@H](CCCNC(=N)N)C(=O)N[C@@H](CCC(=O)O)C(=O)N[C@@H](CC(=O)O)C(=O)NCC(N)=O)C(C)C)[C@@H](C)O)C(C)C` (Ac-IVWGPTVSREDG-NH2) showed a Ki [1] of 15700 ± 210 nM.

In the case of `CC[C@H](C)[C@H](NC(=O)[C@H](C)NC(C)=O)C(=O)N[C@H](C(=O)N[C@@H](Cc1c[nH]c2ccccc12)C(=O)NCC(=O)N1CCC[C@H]1C(=O)N[C@H](C(=O)N[C@H](C(=O)N[C@@H](CO)C(=O)N[C@@H](CCCNC(=N)N)C(=O)N[C@@H](CCC(=O)O)C(=O)N[C@@H](CC(=O)O)C(=O)NCC(N)=O)C(C)C)[C@@H](C)O)C(C)C` (Ac-AIVWGPTVSREDG-NH2), the Ki [1] is reported as 5550 ± 11 nM.

`CC(=O)N[C@@H](CCC(=O)O)C(=O)N[C@@H](CC(=O)O)C(=O)N[C@@H](CC(=O)O)C(=O)N[C@@H](CO)C(=O)N[C@@H](CC(=O)O)C(=O)N[C@H](C(=O)N[C@@H](C)C(=O)N[C@@H](Cc1c[nH]c2ccccc12)C(=O)NCC(=O)NCC(=O)N[C@@H](C)C(=O)N[C@@H](CC(=O)O)C(=O)N[C@H](C(=O)N[C@@H](CC(=O)O)C(N)=O)[C@@H](C)O)C(C)C` (Ac-EDDSDVAWGGADTD-NH2) gave a Ki [4] of 8790 ± 92 nM.

For `CC[C@H](C)[C@H](NC(=O)[C@H](Cc1ccccc1)NC(=O)[C@H](CCC(=O)O)NC(=O)[C@@H](NC(=O)[C@H](CCC(=O)O)NC(C)=O)[C@@H](C)O)C(=O)N[C@@H](C)C(=O)N[C@@H](Cc1c[nH]c2ccccc12)C(=O)NCC(=O)N1CCC[C@H]1C(=O)N[C@H](C(=O)NCC(=O)N[C@@H](CC(=O)O)C(=O)N[C@@H](C)C(=O)N[C@@H](CC(=O)O)C(N)=O)[C@@H](C)O` (Ac-ETEFIAWGPTGDAD-NH2), the Ki [5] was 38 ± 1 nM.

For `CC[C@H](C)[C@H](NC(=O)[C@H](Cc1ccccc1)NC(=O)[C@H](CCC(=O)O)NC(=O)[C@@H](NC(=O)[C@H](CCC(=O)O)NC(C)=O)[C@@H](C)O)C(=O)N[C@@H](C)C(=O)N[C@@H](Cc1c[nH]c2ccccc12)C(=O)NCC(=O)N1CCC[C@H]1C(=O)N[C@@H](Cc1ccccc1)C(=O)NCC(=O)N[C@@H](CC(=O)O)C(=O)N[C@@H](CCC(=O)O)C(=O)N[C@@H](CC(=O)O)C(N)=O` [ETEFIAWGPFGDED] (Ac-ETEFIAWGPFGDED-NH2), the Ki (Table 11, deep mutational scanning validation variants of AJAP-1WT, read-out: Ki (nM) mean ± SEM) was 40 ± 1 nM.
